Values quoted from earlier work, collected in patent publication EP1928431B1, “CONTROLLED RELEASE PHARMACEUTICAL COMPOSITION CONTAINING CARVEDILOL” (Egis Gyógyszergyár Nyilvánosan Múködö Részvénytársaság, priority 2005, dated 2007).
≈ marks a conversion by molar mass, not a printed value. Read-outs that look alike come from different tables or passages of the source.

Columns and labels:
[1] = WO01/35958
[2] = in water
[3] = orally administered and absorbed taken as 100%

COc1ccccc1OCCNCC(O)COc1cccc2[nH]c3ccccc3c12 (stereo not drawn) [carvedilol, 1-[9'H-carbazol-4'-yloxy]-3-[{2"-(2""-<methoxy>-phenoxy)-ethyl}-amino]-propan-2-ol]
solubility in water [1]: 10 µg/mL (≈ 24.6 µM)
solubility ([2]; pH 1): 1000 µg/mL (≈ 2460 µM)
solubility ([2]; pH 8): 10 µg/mL (≈ 24.6 µM)
absorption ([3]; administered in ileum): 28%
absorption ([3]; administered in the colon): 7%
absorption ([3]; administered in the jejunum): 56%
